The target in experiment [1] is T1, progesterone receptor ligand binding domain (GST-tagged PR LBD) (Homo sapiens, UniProt P06401).
T1 construct: purchased Life Technologies A15905 or a15906
T1 sequence (P06401 679-913 limits assumed): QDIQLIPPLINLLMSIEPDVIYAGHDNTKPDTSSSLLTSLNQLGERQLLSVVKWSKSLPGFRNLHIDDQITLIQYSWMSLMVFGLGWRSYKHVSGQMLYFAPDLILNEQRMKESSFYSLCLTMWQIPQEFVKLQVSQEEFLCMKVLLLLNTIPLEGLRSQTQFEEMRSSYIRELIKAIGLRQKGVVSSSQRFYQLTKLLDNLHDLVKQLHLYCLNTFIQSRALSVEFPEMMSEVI
In words: FP Assay for Binding Affinity to Progesterone Receptor (PolarScreen Progesterone Receptor Competitor Assay Kit). To be noted: fluorescence polarization, Fluormone tracer, 2 hours at room temperature. Put shortly: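 Fluorescence polarization competition: GST-tagged human PR LBD, Fluormone tracer and compound incubated 2 h at room temperature in the dark. mP plotted against compound concentration; IC50 from four-parameter non-linear fit.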

The target in a further experiment is T2, androgen receptor (Homo sapiens, UniProt P10275).
T2 construct: host or cells: unnamed cells, cytosolic fraction
T2 sequence (P10275 1-920): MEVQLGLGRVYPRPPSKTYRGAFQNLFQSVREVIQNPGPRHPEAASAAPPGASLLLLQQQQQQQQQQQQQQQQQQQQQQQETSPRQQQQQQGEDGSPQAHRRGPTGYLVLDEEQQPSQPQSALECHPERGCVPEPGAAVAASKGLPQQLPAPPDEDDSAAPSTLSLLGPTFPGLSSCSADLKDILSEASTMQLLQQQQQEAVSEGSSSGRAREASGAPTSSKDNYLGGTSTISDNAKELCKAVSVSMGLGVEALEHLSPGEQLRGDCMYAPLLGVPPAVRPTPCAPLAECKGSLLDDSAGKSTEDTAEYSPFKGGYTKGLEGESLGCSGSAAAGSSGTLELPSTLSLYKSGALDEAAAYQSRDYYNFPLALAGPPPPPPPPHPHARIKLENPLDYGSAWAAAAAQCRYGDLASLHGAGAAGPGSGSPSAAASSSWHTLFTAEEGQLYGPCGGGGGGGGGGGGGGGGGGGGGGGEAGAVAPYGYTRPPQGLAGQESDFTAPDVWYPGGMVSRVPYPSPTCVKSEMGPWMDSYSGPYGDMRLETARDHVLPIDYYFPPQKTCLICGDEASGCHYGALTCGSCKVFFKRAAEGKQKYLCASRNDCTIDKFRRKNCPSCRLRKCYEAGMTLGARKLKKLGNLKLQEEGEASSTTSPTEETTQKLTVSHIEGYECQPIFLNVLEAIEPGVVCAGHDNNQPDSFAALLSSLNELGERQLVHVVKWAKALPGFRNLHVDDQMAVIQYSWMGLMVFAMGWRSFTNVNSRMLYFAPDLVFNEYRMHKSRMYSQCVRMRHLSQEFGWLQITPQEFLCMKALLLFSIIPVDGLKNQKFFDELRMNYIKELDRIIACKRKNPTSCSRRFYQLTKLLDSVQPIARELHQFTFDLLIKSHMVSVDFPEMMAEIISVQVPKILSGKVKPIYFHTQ
The experiment is described as follows: Assay for binding affinity to androgen receptor ([3H]methyltrienolone radioligand competition, cell cytosol). Conditions: binding to the androgen receptor, 1 nM [3H]methyltrienolone, 24 hr at 4° C. As to the method: Fractions of cell cytosol ([…]) were incubated for 24 hr at 4° C. with 1 nM [^3H]methyltrienolone in the absence or presence of the test compound in a buffer containing 25 mM Hepes-Tris (pH 7.4), 1 mM EDTA, 10 mM Na2MoO4, 2 mM DTT, 5 μM triamcinolone acetonide, and 10% glycerol. Nonspecific binding was determined in the presence of […] testosterone. Following incubation, the samples were filtered rapidly under vacuum through glass fiber filters (GF/B, Packard) presoaked with 0.3% PEI and rinsed several times with ice-cold 50 mM Tris-HCl using a 96-sample cell harvester (Unifilter, Packard). The filters were dried then counted for radioactivity in a scintillation counter (Topcount, Packard) using a scintillation cocktail (Microscint 0, Packard). The results are expressed as a percent inhibition of the control radioligand specific binding. The standard reference compound is testosterone, which is tested in each experiment at several concentrations to obtain a competition curve from which its IC50 is calculated.

In experiment [2] the test system is T-Rex 293 cell line SC cells having increased expression of progesterone receptor isoform B protein. The experiment is described as follows: Cellular growth inhibition assay, T-Rex 293 SC cells exposed to doxycycline (increased progesterone receptor isoform B expression), CellTiter-Glo. The class given is cell-based. To be noted: T-Rex 293 SC cells with 10 ng/mL doxycycline (increased PR isoform B), 72 hours.

Take `Cn1cc(-c2cc(C(C)(C)O)ccc2Oc2cccc(OCCN3CCN(c4ncc(C(=O)N[C@H]5C(C)(C)[C@H](Oc6ccc(C#N)c(Cl)c6)C5(C)C)cn4)CC3)c2F)c2cc[nH]c2c1=O` [Compound I-99]: the IC50 in experiment [1] was in the range of 50 to 500 nM. On androgen receptor, the Ki was < 50 nM.
For `Cn1cc(-c2cc(C(C)(C)O)ccc2Oc2ccc(N3CC4(C3)CN(c3ncc(C(=O)N[C@H]5C(C)(C)[C@H](Oc6ccc(C#N)c(Cl)c6)C5(C)C)cn3)CCO4)cc2)c2cc[nH]c2c1=O` [Compound I-212], in that order: 50 to 500 nM and < 50 nM.
On to `CCS(=O)(=O)Nc1ccc(Oc2ccc(OCC3CCN(c4ncc(C(=O)N[C@H]5C(C)(C)[C@H](Oc6ccc(C#N)c(Cl)c6)C5(C)C)cn4)CC3)cc2)c(-c2cn(C)c(=O)c3[nH]ccc23)c1` [Compound I-138], for which the GI50 in experiment [2] is < 500 nM. Also, the IC50 in experiment [1] was > 2500 nM. Also, the inhibition constant (Ki) at androgen receptor is < 50 nM.
`CCS(=O)(=O)c1ccc(OC(CCCCN2CCN(c3ncc(C(=O)NC4C(C)(C)C(Oc5ccc(C#N)c(Cl)c5)C4(C)C)cn3)CC2)C2CC2)c(-c2cn(C)c(=O)c3[nH]ccc23)c1` (stereo not shown) [Compound I-223, N-[3-(3-chloro-4-cyano-phenoxy)-2,2,4,4-tetramethyl-cyclobutyl]-2-[4-[5-cyclopropyl-5-[4-ethylsulfonyl-2-(6-methyl-7-oxo-1H-pyrrolo[2,3-c]pyridin-4-yl)phenoxy]pentyl]piperazin-1-yl]pyrimidine-5-carboxamide] showed an IC50 in experiment [1] of 50 to 500 nM. Moreover, the Ki at androgen receptor is < 50 nM.
`Cn1cc(-c2cc(C(C)(C)O)ccc2Oc2cccc(N3CC4(CN(c5ncc(C(=O)N[C@H]6C(C)(C)[C@H](Oc7ccc(C#N)c(Cl)c7)C6(C)C)cn5)CCO4)C3)c2F)c2cc[nH]c2c1=O` [Compound I-216] returned an IC50 in experiment [1] of 50 to 500 nM. Moreover, the Ki on androgen receptor was < 50 nM.
As to `Cn1cc(-c2cc(C(C)(C)O)ccc2Oc2ccc(CCC3CCN(c4ncc(C(=O)N[C@H]5C(C)(C)[C@H](Oc6ccc(C#N)c(Cl)c6)C5(C)C)cn4)CC3)cc2)c2cc[nH]c2c1=O` [Compound I-203], the GI50 in experiment [2] is < 500 nM. Also, the IC50 in experiment [1] is > 2500 nM. Further, on androgen receptor, the Ki lay in the range of 50 to 500 nM.
For `Cn1cc(-c2cc(C(C)(C)O)ccc2Oc2ccc(N3CC(CC4CCN(c5ncc(C(=O)N[C@H]6C(C)(C)[C@H](Oc7ccc(C#N)c(Cl)c7)C6(C)C)cn5)CC4)C3)cc2)c2cc[nH]c2c1=O` [Compound I-232], in that order: < 500 nM, 500 to 2500 nM and < 50 nM.
Consider `CCS(=O)(=O)Nc1ccc(Oc2cccc(COC3CCN(c4ncc(C(=O)N[C@H]5C(C)(C)[C@H](Oc6ccc(C#N)c(Cl)c6)C5(C)C)cn4)CC3)c2)c(-c2cn(C)c(=O)c3[nH]ccc23)c1` [Compound I-18, N-((1r, 3r)-3-(3-chloro-4-cyanophenoxy)-2,2,4,4-tetramethylcyclobutyl)-2-(4-((3-(4-(ethylsulfonamido)-2-(6-methyl-7-oxo-6,7-dihydro-1H-pyrrolo[2,3-c]pyridin-4-yl)phenoxy)benzyl)oxy)piperidin-1-yl)pyrimidine-5-carboxamide], for which the GI50 in experiment [2] was < 500 nM. In addition, the Ki on androgen receptor was < 50 nM.
As for `CCS(=O)(=O)c1ccc(Oc2cccc(OCCN3CCN(c4ncc5c(n4)CN([C@H]4C(C)(C)[C@H](Oc6ccc(C#N)c(Cl)c6)C4(C)C)C5=O)CC3)c2F)c(-c2cn(C)c(=O)c3[nH]ccc23)c1` [Compound I-217], the half-maximal inhibitory concentration (IC50) in experiment [1] was < 50 nM. Further, the Ki at androgen receptor was < 50 nM.
Regarding `CCS(=O)(=O)Nc1ccc(Oc2cccc(OCCOC3CCN(c4cnc(C(=O)N[C@H]5C(C)(C)[C@H](Oc6ccc(C#N)c(Cl)c6)C5(C)C)cn4)CC3)c2)c(-c2cn(C)c(=O)c3[nH]ccc23)c1` [Compound I-71, N-((1r, 3r)-3-(3-chloro-4-cyanophenoxy)-2,2,4,4-tetramethylcyclobutyl)-5-(4-(2-(3-(4-(ethylsulfonamido)-2-(6-methyl-7-oxo-6,7-dihydro-1H-pyrrolo[2,3-c]pyridin-4-yl)phenoxy)phenoxy)ethoxy)piperidin-1-yl)pyrazine-2-carboxamide], the GI50 in experiment [2] was < 500 nM. This molecule came in with a Ki at androgen receptor of 500 to 2500 nM.
In the same order, the values of `CCS(=O)(=O)Nc1ccc(Oc2cccc(OCCOCCOCCOCCOCCN(C)c3ncc(C(=O)N[C@H]4C(C)(C)[C@H](Oc5ccc(C#N)c(Cl)c5)C4(C)C)cn3)c2)c(-c2cn(C)c(=O)c3[nH]ccc23)c1` [Compound I-3] are < 500 nM and < 50 nM.

These data come from patent US20250388605A1, “HETEROBIFUNCTIONAL COMPOUNDS AND METHODS OF TREATING DISEASE” (Halda Therapeutics OpCo, Inc., priority 2022, published 2025).
